Patent publication US8962621B2 (Shanghai Institute of Pharmaceutical Industry, priority 2010, dated 2015)

Assays:
[1] = test system: rats; assay: Learned helplessness experiment (conditioned avoidance test); type: in vivo; settings: for Incubation period of escape / Number of times of successful avoidance: one week, test 24 h after last administration, n = 10
Source text: (1) Principles • This is an animal model of depression. In this experiment, an animal is placed under conditions with aversive stimulus which it can't escape. […] This is a well recognized depression state, in which the level of catecholamine in the animal's brain is reduced. An antidepressant can act against this state. The learned helplessness model is sensitive to a variety of antidepressants used in a sub-long period (3-7 d), including tricyclic antidepressants, monoamine oxidase inhibitors, monoamine reuptake inhibitors and atypical antidepressants.
(2) Test Method • The animals are grouped. The pre-shock animals are generated the first day by performing inescapable electric shock. The pre-shock animals are given foot electric shock (0.8 mA, 15 s) for 60 times (1 min interval). Rats in the control group are only put into the cage for a same period of time but without any electric shock. • The administration of drugs starts the next day and lasts for one week. […] The conditioned avoidance test is conducted 24 h after the last administration to determine the number of times of successful avoidance and the incubation period of escape.

[2] = test system: NA reuptake; assay: Yohimbine toxicity enhancement in mice; type: in vivo; settings: for Mortality (%) 1 h / Mortality (%) 2 h / Mortality (%) 4 h / Mortality (%) 5 h / Mortality (%) 24 h: Yohimbine 25 mg/kg s.c. 1 h later, n = 10
Source text: Tests of the 5-hydroxytryptophan (DL-5-HTP) potentiation in mice, Yohimbine toxicity enhancement in mice and oxidation tremors can verify a compound's inhibition effect on 5-HT, NA and DA reuptake. Compound VI-2 is selected for the tests.
a) Principles • Yohimbine can prevent the binding of NA to the receptor by occupying α2 receptor. If an antidepressant which inhibits the deactivation of NA or inhibits NA reuptake is taken together with Yohimbine, an individual may be poisoned even to death due to the raised NA concentration.
b) Test Method • This test consists of 5 experimental groups: Yohimbine control group, VI-2-1 (30 mg/kg) group, VI-2-2 (18 mg/kg) group, VI2-3 (11 mg/kg) group and VI-2-4 (6.5 mg/kg) group. The highest dose used in the DL-5-HTP potentiation test in mice is designated as the reference for the highest dose group, down from which 4 dosage groups are set with a dose ratio of 0.6 across groups. For each VI-2 group, the compound at the corresponding dosage is administrated orally, or as in the case of the Yohimbine control group, N.S is given to the animals. One hour after the treatment, Yohimbine at 25 mg/kg (life-threatening dose for the animal) is administrated by subcutaneous injection to the mice in all groups. The mortality in each group is observed and recorded at 1, 2, 4, 5 and 24 h after the administration of Yohimbine. The ED50 value is calculated accordingly.

[3] = biological target: NA Transporter (hNAT) (Homo sapiens, UniProt P23975); assay: Inhibition of [3H]-NA reuptake in HEK 293 cells stably expressing hNAT; settings: HEK293, read-out: NA Reuptake Inhibition
[4] = Venlafaxine 30 mg/kg, VI-2 at 3 doses (20, 10, 5 mg/kg)

NA Transporter (hNAT), sequence (P23975 whole entry): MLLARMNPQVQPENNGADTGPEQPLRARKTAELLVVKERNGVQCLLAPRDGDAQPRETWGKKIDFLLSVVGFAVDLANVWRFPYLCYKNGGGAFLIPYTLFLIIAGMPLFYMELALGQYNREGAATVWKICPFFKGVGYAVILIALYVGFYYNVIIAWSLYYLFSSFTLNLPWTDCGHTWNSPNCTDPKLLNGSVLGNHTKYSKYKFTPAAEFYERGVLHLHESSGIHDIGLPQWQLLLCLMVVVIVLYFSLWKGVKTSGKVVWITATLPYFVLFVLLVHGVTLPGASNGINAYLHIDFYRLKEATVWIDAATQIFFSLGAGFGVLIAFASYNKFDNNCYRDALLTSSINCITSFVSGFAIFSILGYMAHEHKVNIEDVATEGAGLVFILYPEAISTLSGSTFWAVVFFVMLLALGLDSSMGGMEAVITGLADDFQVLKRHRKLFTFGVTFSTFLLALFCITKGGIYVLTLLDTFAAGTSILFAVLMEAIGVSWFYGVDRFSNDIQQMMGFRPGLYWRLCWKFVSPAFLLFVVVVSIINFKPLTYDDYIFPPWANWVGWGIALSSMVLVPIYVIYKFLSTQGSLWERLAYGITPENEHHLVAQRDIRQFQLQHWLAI

Compound: CN(C)CCC(c1ccc(Cl)c(Cl)c1)N1CCCC1 (stereo not shown) [VI-2, N,N-dimethyl-3-(3,4-dichlorophenyl)-3-(pyrrolidin-1-yl)-propylamine]
- Incubation period of escape ([1]; 5 mg/kg): 140.3 ± 195.44 s
- Number of times of successful avoidance ([1]; 5 mg/kg): 21.2 ± 6.73
- Incubation period of escape ([1]; 10 mg/kg): 188.3 ± 178.38 s
- Number of times of successful avoidance ([1]; 10 mg/kg): 19.5 ± 8.83
- Incubation period of escape ([1]; 20 mg/kg): 171.1 ± 159.69 s
- Number of times of successful avoidance ([1]; 20 mg/kg): 18.9 ± 9.35
- incubation period of escape (in words) [1, 4]: significantly shortened incubation period of escape
- times of successful avoidance (in words) [1, 4]: relatively more times of successful avoidance
- Mortality (%) 1 h ([2]; 6.5 mg/kg oral): 0%
- Mortality (%) 2 h ([2]; 6.5 mg/kg oral): 0%
- Mortality (%) 4 h ([2]; 6.5 mg/kg oral): 0%
- Mortality (%) 5 h ([2]; 6.5 mg/kg oral): 0%
- Mortality (%) 24 h ([2]; 6.5 mg/kg oral): 0%
- Mortality (%) 1 h ([2]; 11 mg/kg oral): 0%
- Mortality (%) 2 h ([2]; 11 mg/kg oral): 1%
- Mortality (%) 4 h ([2]; 11 mg/kg oral): 0%
- Mortality (%) 5 h ([2]; 11 mg/kg oral): 0%
- Mortality (%) 24 h ([2]; 11 mg/kg oral): 0%
- Mortality (%) 1 h ([2]; 18 mg/kg oral): 1%
- Mortality (%) 2 h ([2]; 18 mg/kg oral): 2%
- Mortality (%) 4 h ([2]; 18 mg/kg oral): 0%
- Mortality (%) 5 h ([2]; 18 mg/kg oral): 0%
- Mortality (%) 24 h ([2]; 18 mg/kg oral): 0%
- Mortality (%) 1 h ([2]; 30 mg/kg oral): 2%
- Mortality (%) 2 h ([2]; 30 mg/kg oral): 0%
- Mortality (%) 4 h ([2]; 30 mg/kg oral): 0%
- Mortality (%) 5 h ([2]; 30 mg/kg oral): 0%
- Mortality (%) 24 h ([2]; 30 mg/kg oral): 0%
- enhancement of Yohimbine toxicity (in words) ([2]; 30, 18 and 11 mg/kg oral, significant dose-effect relationship): enhances the toxicity of Yohimbine
- ED50 ([2]; Mus musculus, oral, Bliss method, DAS statistical software): 32.8 mg/kg
- inhibition at 10 µM [3]: 100%
